Reference: patent US20240082218A1, “PHARMACEUTICAL COMBINATIONS COMPRISING A KRAS G12C INHIBITOR AND USES OF A KRAS G12C INHIBITOR FOR THE TREATMENT OF CANCERS” (priority 2020, published 2024)
Like-named read-outs stand apart in the source and are kept apart here.

Tests used:
[1] = tested on: MEK Q56P mutated cell lines; test: Proliferation cellular assay; assay type: cell-based
4-week toxicity study = assay type: in vivo; settings: dog
KYSE410 xenograft = test: Anti-tumor activity in KYSE410 (esophageal) xenografts; assay type: in vivo, mice; settings: 10, 30 and 100 mg/kg oral daily
[2] = tested on: KRAS G12C-mutated cell lines; test: Proliferation cellular assay; assay type: cell-based
[3] = tested on: Lu99 KRAS G12C lung carcinoma xenograft; test: Anti-tumor efficacy in Lu99 KRAS G12C lung carcinoma xenografts; assay type: in vivo, mice
Protocol: It carries the allele NM_033360.4(KRAS):c.34G>T and consequently a heterozygous KRAS Gly12Cys mutation. Lu99 cells were grown in sterile conditions in a 37° C. incubator with 5% CO2 for two weeks. The cells were kept in RPMI media supplemented with 10% FCS, 2 mM L-Glutamin, 1 mM sodium pyruvate and 10 mM HEPES, and split 1:6 every 3 days. […] On the day of injection, cells were harvested after 8 passages in total, including passages from the vendor. Cells were resuspended in 50% HBSS and 50% Matrigel at a final concentration of 10·10^6 cells/ml.
Experiments were performed with female nude mice (Charles River Laboratories, Crl:NU(NCr)-Foxn1nu Homozygous). […] Animals were allowed to accommodate at least for 7 days.
Mice were injected subcutaneously with Lu99 human NSCLC cells to induce xenograft tumors and randomized into treatment groups when the mean tumor volume reached ˜250 mm^3.
The control group received a solution of 0.1% Tween 80 (Fisher Scientific AG #BP338-500) and 0.5% Methylcellulose in water.
The treatment period was between 9 to 28 days, depending on the groups.
Tumor growth was monitored regularly post cell inoculation and animals were randomized into treatment groups (n=6) when TV reached appropriate volume. During the treatment period, xenograft tumor sizes were measured about 2-3 times per week manually with calipers, and the TV was estimated in mm^3 using the formula: Length×Width^2/2.
Mice were injected subcutaneously with Lu99 human NSCLC cells to induce xenograft tumors and randomized into treatment groups when the mean tumor volume reached ˜200 mm^3. […] The treatment period was between 14 to 35 days, depending on the groups. Animals treated with vehicle were terminated at day 14. […] Tumor volumes were recorded and are represented as mean±SEM (standard error of the mean) for each group. Anti-tumor response of treatment groups vs. vehicle group was calculated at day 14 as % T/C or % regression.

DUSP6 mRNA transcript = test: In vivo DUSP6 mRNA in NCI-H2122 xenografts; settings: 100 mg/kg QD oral
Protocol: (§1) KRASG12C inhibition can be assessed by measuring free KRASG12C levels (target occupancy) and other biomarkers in the MAPK signaling pathway, such as decreased levels of phosphorylated ERK1/2 (pERK) and downregulation of DUSP6 mRNA transcript. […] In the less sensitive NCI-H2122 xenografts, orally administered JDQ443 (100 mg/kg QD) achieved approximately 80% KRASG12C inhibition and 90% decrease in DUSP6 mRNA transcript, causing stasis which is the maximum response in this model upon MAPK pathway inhibition.

KRASG12C [4] = target: T1, KRASG12C (Homo sapiens, UniProt P01116, G12C); test: KRASG12C target occupancy in LU99 xenografts after 5 days treatment; assay type: in vivo; parameters: KRASG12C target occupancy was assessed after 5 days treatment of LU99 xenografts; endogenous in cells; host or cells: LU99 tumour xenografts in nude mice; settings: single-agent 30 mg/kg vs 100 mg/kg
KRASG12C [5] = target: T1, KRASG12C; test: In vitro KRAS G12C target occupancy in H358 cancer cells; assay type: cell-based; parameters: endogenous in cells; host or cells: H358 (NCI-H358) cancer cells; settings: read-out: in vitro IC50 for inhibition of KRAS G12C (target occupancy)
Protocol: as §1

[6] = Oral exposure and tolerability in dog
H358 cancer cells = test: Antiproliferation in H358 cancer cells; assay type: cell-based; settings: Homo sapiens, NCI-H358
Blood pharmacokinetics = settings: in vivo
KRAS WT = KRAS WT (Homo sapiens, UniProt P01116); test: cRAF recruitment 6 h cellular assay; assay type: cell-based
KRASG12C [7] = target: T1, KRASG12C; test: cRAF recruitment 6 h cellular assay; assay type: cell-based
[8] = tested on: advanced solid tumors harboring the KRAS G12C mutation; settings: patients; preliminary data, trial ongoing
Protocol: The study is conducted in adult patients with advanced solid tumors who harbor the KRAS G12C mutation. In expansion, advanced (metastatic or unresectable) non-small cell lung cancer patients who harbor the KRAS G12C mutation and who are in the second or third line treatment setting will be enrolled.
In particular, it may be administered at a total daily dose of 400 mg, administered once daily or twice daily. It may also be administered at a total daily dose of 200 mg, administered once daily or twice daily.
It may also be administered at a total daily dose of 600 mg, administered once or twice daily.
TNO155 is administered p.o. QD or BID in a 2 week on/1 week off schedule or continuously.
TNO155 may be administered at a total daily dose ranging from 10 to 80 mg, or from 10 to 60 mg. For example, the total daily dose of TNO155 may be selected from 10, 15, 20, 30, 40, 60 and 80 mg. For example, TNO may be dosed at a total daily dose of 10, 15, 20 or 30 mg.
The total daily dose of TNO155 may be administered continuously, QD (once a day) or BID (twice a day) on QD or BID on a 2 weeks on/l week off schedule. The total daily dose of TNO155 may be administered continuously, QD (once a day) or BID (twice a day) on QD or BID on continuously (i.e. without a drug holiday). […]

[9] = tested on: Ba/F3 cells expressing FLAG-KRAS G12C/Y96C; test: Ba/F3 3-day proliferation, Cell titer glo (Example 12); assay type: cell-based, murine; settings: Mus musculus
Protocol: (§2) The parental Ba/F3 cells were cultured in the presence of 5 ng/ml of recombinant murine IL-3 (Life Technologies, #PMC0035).
(§3) The mutant plasmids were transfected into the Ba/F3 WT cells by electroporation with the NEON transfection kit (Invitrogen, #MPK10025).
(§4) Ba/F3 cells are normally dependent on IL-3 to survive and proliferate, however, by expressing oncogenes they are able to switch their dependency from IL-3 to the expressed oncogene. […] Cell number and viability was measured every three days and after seven days the IL-3 withdrawal was completed.
(§5) Treatment was performed on the same day with a Tecan D300e drug dispenser. Viability was detected on the same day of treatment for the start plate (Day 0) and three days post-treatment (Day 3) using the CellTiter-Glo Luminescent Cell Viability Assay (Promega, #G7573) on a Tecan infinitiy M200 Pro reader (Intergration Time 1000 ms).
(§6) To determine the growth, the three days post-treatment (Day 3) readout was normalized to start plate (Day 0). The percentage viability was then calculated by normalizing treated wells to DMSO treated control samples. XLfit was used to make the fitted curve with a Sigmoidal Dose-Response Model (four-parameter curve) (FIG. 7).

[10] = tested on: Ba/F3 cells expressing FLAG-KRAS G12C/H95R; test: as above; assay type: cell-based, murine; settings: Mus musculus
Protocol: as §2, §3, §4, §5, §6

[11] = tested on: Ba/F3 cells expressing FLAG-KRAS G12C/R68S; test: as above; assay type: cell-based, murine; settings: Mus musculus
Protocol: as §2, §3, §4, §5, §6

[12] = tested on: Ba/F3 cells expressing FLAG-KRAS G12C/Y96D; test: as above; assay type: cell-based, murine; settings: Mus musculus
Protocol: as §2, §3, §4, §5, §6

[13] = tested on: MIA PaCa-2 (KRASG12C pancreas) xenograft; test: Anti-tumor activity in MIA PaCa-2 xenografts; assay type: in vivo, mice
HRAS WT = HRAS WT (Homo sapiens, UniProt P01112); test: cRAF recruitment 6 h cellular assay; assay type: cell-based
Chain of HRAS WT (P01112 whole entry): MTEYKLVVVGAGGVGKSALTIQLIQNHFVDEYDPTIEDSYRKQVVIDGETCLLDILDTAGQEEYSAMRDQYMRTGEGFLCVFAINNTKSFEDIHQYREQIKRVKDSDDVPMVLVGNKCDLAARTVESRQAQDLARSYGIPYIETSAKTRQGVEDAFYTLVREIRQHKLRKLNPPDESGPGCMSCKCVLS

[14] = Oral exposure and tolerability in rat
KRASG12C [15] = target: T1, KRASG12C; test: In vivo KRASG12C target occupancy in NCI-H2122 xenografts; parameters: endogenous in cells; settings: 100 mg/kg QD oral
Protocol: as §1

NCI-H2030 xenograft = test: Anti-tumor activity in NCI-H2030 xenografts; assay type: in vivo, mice; settings: 10, 30 and 100 mg/kg oral daily
[16] = BaF3, 72 h, 3 days, 4 independent experiments, read-out: GI50 ± St DV

C=CC(=O)N1CC2(CC(n3nc(-c4ccc5c(cnn5C)c4)c(-c4c(Cl)c(C)cc5[nH]ncc45)c3C)C2)C1 (single isomer, unassigned) [Compound A, 1-{6-[(4M)-4-(5-Chloro-6-methyl-1H-indazol-4-yl)-5-methyl-3-(1-methyl-1H-indazol-5-yl)-1H-pyrazol-1-yl]-2-azaspiro[3.3]heptan-2-yl}prop-2-en-1-one]
GI50 [1]: 4000 nM
tolerability in 4-week toxicity study (4-week toxicity study): well tolerated
pattern of maximal response (KYSE410 xenograft): moderate tumor growth inhibition
GI50 [2]: 30 nM
pattern of maximal response ([3]; LU99, 10, 30 and 100 mg/kg oral daily): regression
anti-tumor response (Example 7) ([3]; Lu99, oral, Compound A 100 mg/kg once daily, TNO155 10 mg/kg twice daily continuous, alone or in combination): tumor regression for approximately two weeks
anti-tumor response (Example 6) ([3]; Lu99, oral, Compound A 100 mg/kg once daily, TNO155 10 mg/kg twice daily, alone or in combination, up to 28 days): tumor regression for three weeks
decrease in DUSP6 mRNA transcript (DUSP6 mRNA transcript): approximately 90%
reduction of free KRAS^G12C in tumors (KRASG12C [4]): less reduction of free KRAS^G12C
IC50 (KRASG12C [5]): 20 nM
oral bioavailability [6]: orally bioavailable
tolerability [6]: well-tolerated
GI50 (H358 cancer cells): 30 nM
half-life (Blood pharmacokinetics): ~2 h
EC50 (KRAS WT): > 10000 nM
EC50 (KRASG12C [7]): 20 nM
clinical efficacy [8]: early signs of clinical efficacy
clinical safety and tolerability [8]: acceptable safety and tolerability profile
GI50 [9, 16]: > 1000 nM
GI50 ([9]; BaF3, read-out: GI50): > 1000 nM
GI50 [10, 16]: 24 ± 6 nM
GI50 ([10]; BaF3, read-out: GI50): 24 ± 6 nM
GI50 [11, 16]: > 1000 nM
GI50 ([11]; BaF3, read-out: GI50): > 1000 nM
GI50 [12, 16]: > 1000 nM
GI50 ([12]; BaF3, read-out: GI50): > 1000 nM
anti-tumor activity ([13]; 3 mg/kg daily oral): tumor stasis
anti-tumor activity ([13]; 5 mg/kg twice daily, compared with 10 mg/kg daily): comparable regression
anti-tumor activity ([13]; 10 mg/kg daily oral): tumor regression
anti-tumor activity ([13]; 15 mg/kg twice daily, compared with 30 mg/kg qd): same tumor regression
tumor growth inhibition by schedule ([13]; 30 mg/kg daily compared to 30 mg/kg q3d or 90 mg/kg q3d): better tumor growth inhibition
anti-tumor activity ([13]; 30 mg/kg daily oral): tumor regression
anti-tumor activity ([13]; 100 mg/kg daily oral): tumor regression
pattern of maximal response ([13]; 10, 30 and 100 mg/kg oral daily): regression
EC50 (HRAS WT): > 10000 nM
oral bioavailability [14]: orally bioavailable
tolerability [14]: well-tolerated
inhibition at 100 mg/kg (KRASG12C [15]): ~80%
pattern of maximal response (NCI-H2030 xenograft): moderate tumor growth inhibition
